Assay results taken from patent US9750728B2, “Method and pharmaceutical composition for inhibiting PI3K/AKT/mTOR signaling pathway” (TARGETED THERAPEUTICS, LLC, priority 2012, dated 2017).
Entries after “also recorded” stand apart in the source; their conditions may differ.

Key:
[1] = test system: PI3K; assay: PI3K kinase assay in anti-IRS-1 immunoprecipitates; assay type: cell-based; details: Panc-1, 24 hours; ZPP 200 μM, Y29794 0.5 μM or rapamycin alone
Experimental: PI3K kinase assay kit (Calbiochem, Bilerica, Mass., USA) was used to measure the IRS-1-associated or p85-associated PI3K kinase activity in cells. The indicated cells were treated with different conditions for 24 hours. The cells were rinsed three times with pre-cooled PBS, lysed in 500 μl of lysis buffer (150 mmol/L Nacl, 1% Triton-x-100, 50 mmol/1 Tris (pH8.0, 1 mmol/L PMSF, 1 μg/L aprotinin, 1 μg/Lleupeptin, 1 μg/L peptain). Cell lysates (500 μg, in triplicate) of were used for anti-IRS-1 or anti-p85 immunoprecipitation. The immunoprecipitates were resuspended in 200 μl assay buffer and mixed with the fluorescence-labeled PI3K substrate BODIPY-TMR-phosphatidylinositol (100 μM) and ATP (37° C.) for 1 hour. The fluorescence intensity was measured with a fluorometer (excitation wavelength of 540 nm, emission wavelength […]). The difference between fluorescence intensity between control immunoprecipitates (no lysates) and lysate immunoprecipitates was used to indicate PI3K kinase activity. IR-1 anti-rabbit antibody and rabbit anti-PI3K p85 antibody were purchased from Millipore Corporation (Billerica, Mass., USA). Panc-1 anti-p85 immunoprecipitates were used for PI3K kinase assay (FIG. 12) and immunoblot analysis (FIG. 12). Rapamycin treatment in control cells increased PI3K kinase activity (P<0.01). […]

[2] = test system: IRS-1; assay: Immunoblot analysis of IRS-1 (protein, phosphorylation, half-life, p85 coimmunoprecipitation); assay type: cell-based; details: for rapamycin-induced increase in IRS-1: rapamycin 10 nM plus ZPP 200 μM or Y29794 0.5 μM, 24 hours
Experimental: 2.2 Immunoblot analysis of gene silencing of PRCP or PREP in cancer cells. Mouse anti-PRCP antibody was purchased from Abcam (Cambridge, Mass., USA). Goat anti-PREP antibody was purchased from R&D Systems (Minneapolis, Minn., USA). Mouse anti-R-actin antibody antibodies was from Santa Cruz Biotechnology (Santa Cruz, Calif., USA). Panc-1 pancreatic cancer cells and MCF7 breast cancer cells were cultured to 80% confluence, cells were rinsed three times with pre-cooled PBS, 500 μl of lysis buffer (150 mmol/L Nacl, 1% Triton-x-100, 50 mmol/l TrispH8.0, 1 mmol/L PMSF, 1 ug/L aprotinin, 1 ug/L leupeptin, 1 ug/L peptain) was added to the cells. Cells were scraped and transferred to a centrifuge tube with a pipette. The lysates were spun in a microcentrifuge at maximal speed for 10 minutes at 4° C. to get rid of the insoluble fraction. Protein concentration was determined by Bradford assay. For immunoprecipitation: 2-5 ug protein-specific antibodies were added to 250-500 ug of lysates in a tube and incubated on an ordital shaker 4° C. for 2-4 hours with moderate shaking, then 20 ul Protein G beads (Santa Cruz Biotechnology (Santa Cruz, Calif., USA.) were added and the mixture was incubated with moderate shaking for another hour. After washing the beads in lysis buffer five times, the immunoprecipitates were boiled in 2× Laemmli sample buffer (50 mmoL/L Tris-HCL (pH8.0), 100 mmoL/L DTT, 2% SDS, 0.1% bromophenol blue, 10% glycerol) for five minutes. The proteins were separated by conventional SDS-polyacrylamide gel electrophoresis (SDS-PAGE) electrophoresis and transferred to Amersham Hybond-P PVDF membrane (GE Company, Pittsburgh, Pa., USA). For immunoblot, the membrane was blocked in 2% BSA in TBST buffer (Tris 1.21 g+NaCl 5.84 g+800 ml H2O adjusted to pH 8.0 with HCl) for one hour and then incubated with primary antibodies in TBST at room temperature (22-25° C.) for 2 hours. After washing three times with TBST, the membrane was incubated with HRP-conjugated secondary antibodies for 0.5 hours at room temperature. After washing the membrane five times with TBST (5 minutes/each), the membrane was incubated with ECL chromogenic reagent (GE Company, Pittsburgh, Pa., USA) for 1-5 minutes. The blots were exposed to films in darkroom for 1-5 minute. The films were developed in an automatic X-OMAT Developer (KODAK, Rochester, N.Y., USA). […] PREP gene silencing (PREP KD) or PRCP gene silencing (PRCP KD) or gene silencing both PRCP and PREP (DKD) in MCF7 cells reduces expression of PREP and/or PRCP proteins compared with control cells (control) (FIGS. 6B & 6C).
3.2 AKT phosphorylation was examined by immunoblot as described in 3.1. IRS-1 expression was analyzed by immunoblot using anti-IRS-1 antibodies purchased from Santa Cruz Biotechnology (Santa Cruz, Calif., USA). Reduction in PRCP and/or PREP by gene silencing is shown by Western blot and quantitative PCR described in 2.2.
3.4 ZPP or Y29794 inhibits IRS-1 tyrosine phosphorylation and p85 PI3K subunit interaction with IRS-1 and PI3K kinase activity. Panc-1 cells were treated with ZPP (200 μM) or Y29794 (0.5 μM) for 24 hours. Lysates were immunoprecipitated with anti-IRS-1 antibodies and the anti-IRS-1 immunoprecipitates were used for PI3K kinase assay and anti-IRS-1 phospho-tyrosine and anti-p85 immunoblot analysis (FIG. 13). ZPP or Y29794 decreased IRS-1-associated PI3K activity (FIG. 13, upper) and tyrosine phosphorylation of IRS-1 and p85 (FIG. 13, lower).
As described in Example 2.2 and above, the cells with PRCP and PREP gene silencing were used for analysis of PRCP and PREP gene silencing and inhibition of serine phosphorylation and degradation of IRS-1 and its effects on response to rapamycin. […] Compared to control cells, DKD cells show […] serine phosphorylation (S307 and S636/639) of IRS-1 alongside with decreased tyrosine phosphorylation of IRS-1 (FIG. 18B). […]

[3] = Panc-1, 24 hours, ZPP 200 μM or Y29794 0.5 μM

With `CC(C)c1ccc(C(=O)c2cccs2)c(SCCCCCCCCN(C)C)n1` [Y29794, [2-[8-(dimethylamino)octylsulfanyl]-6-propan-2-ylpyridin-3-yl]-thiophen-2-ylmethanone] the “IRS-1-associated PI3K activity” value [1] was “reduce; also recorded: decreased”, the “rapamycin-induced increase in IRS-1” value ([2]; MCF7) was “blocked” and the “p85 coimmunoprecipitated with IRS-1” value [2, 3] was “reduces; also recorded: decreased”. For the same compound, the “tyrosine phosphorylation of IRS-1 in anti-IRS-1 immunoprecipitates” value [2, 3] was “reduces; also recorded: decreased”, the IRS-1 protein ([2]; Panc-1, Y29794 1 μM (FIG. 19A, 19B)) was “reduces; also recorded: significantly reduced” and the “serine phosphorylation (S307 and S636/639) of IRS-1” value ([2]; Panc-1, Y29794 1 μM (FIG. 19B)) was “induces; also recorded: increased”. For the same compound, the “rapamycin-induced increase in IRS-1 protein” value ([2]; Panc-1, Y29794 1 μM with rapamycin (FIG. 19D)) was “inhibits; also recorded: not increased nor stabilized” and the “rapamycin-induced increase in IRS-1” value ([2]; Panc-1) was “blocked”.
